Assay results taken from PubChem BioAssay AID248 (DTP/NCI, 2004).
Where “and” joins values, the source holds several entries; their conditions need not be identical. Identical values can stand only once. Toxic doses and inconclusive results are not listed. Cut-off read from the data, not from the text of the source: active = T/C of 150% or more; inactive = T/C below 125%.

Tested on: L1210 leukemia ip in BDF1 mice, survival T/C
Assay: NCI In Vivo Anticancer Drug Screen. Data for tumor model L1210 Leukemia (intraperitoneal) in B6D2F1 (BDF1) mice
Conditions: endpoint: mean survival time, higher = longer survival
Outline: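 Mice bearing the transplanted tumor received compound or vehicle. Survival of the treated group was divided by that of the vehicle-treated control group to give the ratio.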

[1] = dose: 50.0 mg/kg/injection, schedule: Q01DX001 (ip), vehicle: saline
[2] = dose: 100.0 mg/kg/injection, schedule: Q01DX001 (ip), vehicle: saline
[3] = dose: 200.0 mg/kg/injection, schedule: Q01DX001 (ip), vehicle: saline
[4] = dose: 400.0 mg/kg/injection, schedule: Q01DX001 (ip), vehicle: saline
[5] = dose: 100.0 mg/kg/injection, schedule: Q01DX009 (ip), vehicle: saline with Tween-80
[6] = dose: 100.0 mg/kg/injection, schedule: Q04DX003 (ip), vehicle: saline with Tween-80
[7] = dose: 200.0 mg/kg/injection, schedule: Q01DX009 (ip), vehicle: saline with Tween-80
[8] = dose: 200.0 mg/kg/injection, schedule: Q04DX003 (ip), vehicle: saline with Tween-80
[9] = dose: 400.0 mg/kg/injection, schedule: Q01DX009 (ip), vehicle: saline with Tween-80
[10] = dose: 400.0 mg/kg/injection, schedule: Q04DX003 (ip), vehicle: saline with Tween-80
[11] = dose: 100.0 mg/kg/injection, schedule: Q04DX003 (ip), vehicle: saline
[12] = dose: 200.0 mg/kg/injection, schedule: Q04DX003 (ip), vehicle: saline
[13] = dose: 400.0 mg/kg/injection, schedule: Q04DX003 (ip), vehicle: saline
[14] = dose: 100.0 mg/kg/injection, schedule: Q04DX003 (ip), vehicle: Klucel (hydroxypropylcellulose) (HPC)
[15] = dose: 200.0 mg/kg/injection, schedule: Q04DX003 (ip), vehicle: Klucel (hydroxypropylcellulose) (HPC)
[16] = dose: 100.0 mg/kg/injection, schedule: Q01DX009 (ip), vehicle: saline
[17] = dose: 200.0 mg/kg/injection, schedule: Q01DX009 (ip), vehicle: saline
[18] = dose: 400.0 mg/kg/injection, schedule: Q01DX009 (ip), vehicle: saline
[19] = dose: 100.0 mg/kg/injection, schedule: Q01DX009 (ip), vehicle: Klucel (hydroxypropylcellulose) (HPC)
[20] = dose: 200.0 mg/kg/injection, schedule: Q01DX009 (ip), vehicle: Klucel (hydroxypropylcellulose) (HPC)

Measured: T/C

OCCN(CCO)c1cccc(C(F)(F)F)c1
inactive: [1] 96 % of control | [2] 100 % of control | [3] 106 % of control | [4] 96 % of control

CCCCCCCCCCCCCCCCC1CCc2ccccc21 (stereo not given)
inactive: [1] 101 % of control | [2] 101 % of control | [3] 98 % of control | [4] 101 % of control

CCCCCCCCCCCCCCCCCc1nc2nc(Cl)c(Cl)nc2[nH]1
inactive: dose: 50.0 mg/kg/injection, schedule: Q01DX009 (ip), vehicle: saline with Tween-80 91 % of control | [5] 91 % of control | [6] 98 % of control and 89 % of control | [7] 91 % of control | [8] 96 % of control | [9] 93 % of control | [10] 94 % of control and 90 % of control

Cc1ccc(S(=O)(=O)NC(CCl)=NCC23CC4CC(CC(C4)C2)C3)cc1
inactive: dose: 31.3 mg/kg/injection, schedule: Q04DX002 (ip), vehicle: Klucel (hydroxypropylcellulose) (HPC) 113 % of control | dose: 62.5 mg/kg/injection, schedule: Q04DX002 (ip), vehicle: Klucel (hydroxypropylcellulose) (HPC) 94 % of control | dose: 125.0 mg/kg/injection, schedule: Q04DX002 (ip), vehicle: Klucel (hydroxypropylcellulose) (HPC) 94 % of control

O=C(O)CNCc1cc(=O)[nH]c(=O)[nH]1
inactive: [11] 94 % of control | [12] 97 % of control | [13] 105 % of control

CC1=C2[C@H]3OC(=O)[C@H](C)[C@@H]3CC[C@@]2(C)C=CC1=O
inactive: dose: 100.0 mg/kg/injection, schedule: Q01DX001 (ip), vehicle: other 103 % of control | dose: 200.0 mg/kg/injection, schedule: Q01DX001 (ip), vehicle: other 95 % of control

ClCC[n+]1ccccc1
inactive: dose: 75.0 mg/kg/injection, schedule: Q01DX001 (ip), vehicle: saline 104 % of control | dose: 150.0 mg/kg/injection, schedule: Q01DX001 (ip), vehicle: saline 101 % of control

COC(=O)CCc1c(C)[nH]c(C(=O)OC(C)(C)C)c1C
inactive: dose: 100.0 mg/kg/injection, schedule: Q01DX001 (ip), vehicle: Klucel (hydroxypropylcellulose) (HPC) 97 % of control | [14] 93 % of control | dose: 200.0 mg/kg/injection, schedule: Q01DX001 (ip), vehicle: Klucel (hydroxypropylcellulose) (HPC) 101 % of control | [15] 98 % of control | dose: 400.0 mg/kg/injection, schedule: Q01DX001 (ip), vehicle: Klucel (hydroxypropylcellulose) (HPC) 93 % of control | dose: 400.0 mg/kg/injection, schedule: Q04DX003 (ip), vehicle: Klucel (hydroxypropylcellulose) (HPC) 95 % of control

COC(=O)C1(Br)CCC1(Br)C(=O)OC (stereo not given)
inactive: [16] 100 % of control | [11] 93 % of control | [17] 100 % of control | [12] 100 % of control | [18] 98 % of control | [13] 102 % of control

Cc1ccc(S(=O)(=O)OCC2OC(n3cnc4c(NC=O)ncnc43)C(OC=O)C2OC=O)cc1 (stereo not given)
inactive: dose: 50.0 mg/kg/injection, schedule: Q01DX009 (ip), vehicle: gum acacia 115 % of control | dose: 100.0 mg/kg/injection, schedule: Q01DX005 (ip), vehicle: saline 105 % of control | dose: 100.0 mg/kg/injection, schedule: Q01DX009 (ip), vehicle: gum acacia 104 % of control | dose: 200.0 mg/kg/injection, schedule: Q01DX009 (ip), vehicle: gum acacia 100 % of control

CCN(CC)Cc1ncccc1O
inactive: dose: 50.0 mg/kg/injection, schedule: Q01DX009 (ip), vehicle: Klucel (hydroxypropylcellulose) (HPC) 106 % of control | [19] 106 % of control | [14] 105 % of control | [20] 93 % of control | [15] 104 % of control

CCCCNC(=O)Nc1ncn[nH]1
inactive: dose: 75.0 mg/kg/injection, schedule: Q01DX001 (ip), vehicle: carboxymethylcellulose (CMC) 103 % of control | dose: 150.0 mg/kg/injection, schedule: Q01DX001 (ip), vehicle: carboxymethylcellulose (CMC) 104 % of control | dose: 300.0 mg/kg/injection, schedule: Q01DX001 (ip), vehicle: carboxymethylcellulose (CMC) 97 % of control

O=C(Nc1ccc(Br)cc1)c1ccc(C(=O)Nc2ccc(Br)cc2)cc1
inactive: [2] 94 % of control | [3] 100 % of control | [4] 94 % of control

O=C(NCCCl)C(=O)NCCCl
inactive: dose: 100.0 mg/kg/injection, schedule: Q04DX002 (ip), vehicle: Klucel (hydroxypropylcellulose) (HPC) 104 % of control | dose: 200.0 mg/kg/injection, schedule: Q04DX002 (ip), vehicle: Klucel (hydroxypropylcellulose) (HPC) 107 % of control | dose: 400.0 mg/kg/injection, schedule: Q04DX002 (ip), vehicle: Klucel (hydroxypropylcellulose) (HPC) 93 % of control

COc1cc2c(c3oc(=O)ccc13)C(=O)CC(C)(C)O2
inactive: [19] 95 % of control | [11] 96 % of control | [20] 91 % of control | [12] 102 % of control | dose: 400.0 mg/kg/injection, schedule: Q01DX009 (ip), vehicle: Klucel (hydroxypropylcellulose) (HPC) 95 % of control | [13] 98 % of control

COCC(N)=O
inactive: [16] 95 % of control | [11] 107 % of control | [17] 97 % of control | [12] 107 % of control | [18] 97 % of control | [13] 101 % of control

CSc1ccc(NC(=O)NS(=O)(=O)c2ccc(C)cc2)cc1
inactive: [5] 88 % of control and 91 % of control | dose: 100.0 mg/kg/injection, schedule: Q04DX002 (ip), vehicle: saline with Tween-80 96 % of control | [6] 95 % of control | [7] 97 % of control and 91 % of control | dose: 200.0 mg/kg/injection, schedule: Q04DX002 (ip), vehicle: saline with Tween-80 89 % of control | [8] 89 % of control | [9] 87 % of control | dose: 400.0 mg/kg/injection, schedule: Q04DX002 (ip), vehicle: saline with Tween-80 100 % of control and 86 % of control | [10] 90 % of control

CC1CCC2C(C)C3C(CC4C5CC=C6CC(OC7OC(CO)C(O)C(OC8OC(CO)C(O)C(O)C8O)C7OC7OC(C)C(O)C(O)C7O)CCC6(C)C5CCC43C)N2C1 (stereo not given)
inactive: dose: 12.5 mg/kg/injection, schedule: Q01DX015 (sc), vehicle: steriod suspending solution 101 % of control | dose: 25.0 mg/kg/injection, schedule: Q01DX015 (sc), vehicle: steriod suspending solution 98 % of control | dose: 50.0 mg/kg/injection, schedule: Q01DX015 (sc), vehicle: steriod suspending solution 95 % of control | dose: 100.0 mg/kg/injection, schedule: Q01DX001 (sc), vehicle: steriod suspending solution 100 % of control | dose: 100.0 mg/kg/injection, schedule: Q01DX015 (sc), vehicle: steriod suspending solution 101 % of control | dose: 200.0 mg/kg/injection, schedule: Q01DX001 (sc), vehicle: steriod suspending solution 105 % of control | dose: 400.0 mg/kg/injection, schedule: Q01DX001 (sc), vehicle: steriod suspending solution 103 % of control

O=[N+]([O-])c1ccc([N+](=O)[O-])c2nsnc12
inactive: dose: 12.5 mg/kg/injection, schedule: Q04DX003 (ip), vehicle: Klucel (hydroxypropylcellulose) (HPC) 98 % of control | dose: 25.0 mg/kg/injection, schedule: Q04DX003 (ip), vehicle: Klucel (hydroxypropylcellulose) (HPC) 102 % of control
